Assay results from publication PMC10208956, “Microbial peptides activate tumour-infiltrating lymphocytes in glioblastoma” (Nature, 2023).
Read-outs that look alike come from different tables or passages of the source.

Experiments:
[1] = test system: TCC88; details: for Proliferation (SI), peptide dose titration: sheet f
[2] = test system: TCC88; assay: Cytokine and chemokine secretion of TCC88 after peptide stimulation; format: cell-based, human; details: TCC88 supernatant after peptide stimulation; no peptide control subtracted; Fig. 3e
From the text: (§1) Fig. 3 Bacteria-derived and microbiota-derived peptides can stimulate TCC88 as well as the tumour antigen. a, Peptides with the highest predicted stimulatory scores were identified by searching various databases (see Methods). Numbers of unique 10-mer peptides within each database, synthesized peptides, TCC88 stimulatory peptides and the corresponding percentage of stimulatory peptides within each database are shown. […] Cytokine and chemokine secretion of TCC88 was examined and compared upon stimulation with these three different antigens. A specific amount of each cytokine and chemokine (pg ml^−1) was calculated by subtracting the cytokines in the negative control cultures (no peptide control). f, Cytotoxicity of TCC88 against the autologous tumour cell line after stimulation with 2 µM of SIN3A* and HGM3 (data represent the mean percentage of two replicate wells). E:T, effector to target. g, TCC88 was tested with HGM3 (10 µM) or SIN3A* (10 µM) peptides or both together (each 10 µM), and ^3H-thymidine incorporation was measured after 3 days (data represent the mean SI value of three replicate wells ± s.e.m.). Also see Extended Data Figs. 3 and 4. Source data
Supernatants from each experiment were harvested a day before adding thymidine and frozen at −20 °C. Cytokines were measured using ELISA for human IFNγ ELISA MAX (BioLegend), human GM-CSF DuoSet ELISA (R&D Systems) and bead-based assays. A Synergy H1 hybrid multi-mode reader (Agilent) was used to measure the absorbance. The LEGENDplex Multi-analyte Flow Assay kit (BioLegend) is a 13-plex human TH cytokine panel, which includes IFNγ, TNF, IL-2, IL-4, IL-5, IL-6, IL-9, IL-10, IL-13, IL-17A, IL-17F, IL-21 and IL-22. […] LSR Fortessa Flow Cytometer (BD Biosciences) was used to measure cytokines, and data were analysed using FlowJo (Tree Star). The Human XL Cytokine Luminex Performance Assay Fixed Panel (R&D Systems) contains 45 analytes covering a broad range of various chemokines and cytokines.

[3] = test system: TCC75; assay: Cytokine/chemokine secretion of TCC75; format: cell-based, human; parameters: IL-1α / IL-1β / IL-2 / IL-3 / IL-4 / IL-5 / IL-6 / IL-7 / IL-10 / IL-13 / IL-15 / IL-17A / IL-33 / TNF-α: unit not given here; details: TCC75, sheet e
[4] = test system: autologous glioblastoma cells; assay: T cell cytotoxicity assay of TCC88 against the autologous tumour cell line; format: cell-based, human; details: TCC88 stimulated with 2 µM peptide for 72 h; E:T 1:1 and 5:1; 24 h; duplicates; Fig. 3f
From the text: as §1, with “Source data […]” for “Source data”

[5] = test system: bacteria/microbiota-reactive CFSEdim CD4+ TILs; assay: Proliferation of expanded CFSEdim CD4+ TILs that responded to the bacteria/microbiota peptide pool; format: cell-based, human; details: 5 days; 4 replicate wells; Fig. 4d

Ac-QPVEFNHAIHYVN-NH2 [SIN3A*]
SI: TCC88 ([1]; 3 h): 20.6 | Proliferation (SI), peptide dose titration ([1]; peptide concentration 10-1 (unit not given), replicate 1): 42.2997 | Proliferation (SI), peptide dose titration ([1]; peptide concentration 10-1 (unit not given), replicate 2): 45.1904 | Proliferation (SI), peptide dose titration ([1]; peptide concentration 10-1 (unit not given), replicate 3): 49.4521 | Proliferation (SI), peptide dose titration ([1]; peptide concentration 10-2 (unit not given), replicate 1): 1.135 | Proliferation (SI), peptide dose titration ([1]; peptide concentration 10-2 (unit not given), replicate 2): 0.9523 | Proliferation (SI), peptide dose titration ([1]; peptide concentration 10-2 (unit not given), replicate 3): 1.168 | Proliferation (SI), peptide dose titration ([1]; peptide concentration 10-3 (unit not given), replicate 1): 0.8172 | Proliferation (SI), peptide dose titration ([1]; peptide concentration 10-3 (unit not given), replicate 2): 0.7497 | Proliferation (SI), peptide dose titration ([1]; peptide concentration 10-3 (unit not given), replicate 3): 0.8105 | Proliferation (SI), peptide dose titration ([1]; peptide concentration printed 10, fifth line r7 (unit not printed), replicate 1): 28.2921 | Proliferation (SI), peptide dose titration ([1]; peptide concentration printed 10, fifth line r7 (unit not printed), replicate 2): 32.0878 | Proliferation (SI), peptide dose titration ([1]; peptide concentration printed 10, fifth line r7 (unit not printed), replicate 3): 32.0203 | Proliferation (SI), peptide dose titration ([1]; peptide concentration printed 10, fourth line r6 (unit not printed), replicate 1): 44.2381 | Proliferation (SI), peptide dose titration ([1]; peptide concentration printed 10, fourth line r6 (unit not printed), replicate 2): 56.0371 | Proliferation (SI), peptide dose titration ([1]; peptide concentration printed 10, fourth line r6 (unit not printed), replicate 3): 57.6243 | CCL20/MIP-3α [2]: 15.37 pg/mL | CD40 Ligand [2]: 2926.92 pg/mL | CXCL1/GROα [2]: 71.75 pg/mL | CXCL2/GROβ [2]: 125.05 pg/mL | CXCL8/IL-8 [2]: 0 pg/mL | CXCL10/IP-10 [2]: 22.77 pg/mL | Flt-3 Ligand [2]: 138.99 pg/mL | Fractalkine [2]: 649.3 pg/mL | GM-CSF [2]: 12306.4 pg/mL | Granzyme B [2]: 3726.29 pg/mL | IFN-α [2]: 6.21 pg/mL | IFN-γ [2]: 2158.92 pg/mL | IL-1rα [2]: 2936.96 pg/mL | IL-1α [2]: 18.71 pg/mL | IL-1β [2]: 19.49 pg/mL | IL-2 [2]: 1202.18 pg/mL | IL-3 [2]: 486.43 pg/mL | IL-4 [2]: 244.81 pg/mL | IL-5 [2]: 13.04 pg/mL | IL-6 [2]: 272.8 pg/mL | IL-7 [2]: 2.58 pg/mL | IL-10 [2]: 469.8 pg/mL | IL-12p70 [2]: 34.04 pg/mL | IL-13 [2]: 1544.08 pg/mL | IL-15 [2]: 2.67 pg/mL | IL-17A [2]: 3.91 pg/mL | IL-17E/IL-25 [2]: 6.04 pg/mL | IL-33 [2]: 26.68 pg/mL | TNF-α [2]: 10260.2 pg/mL | CCL2/MCP-1 [3]: 15.01 | CCL3/MIP-1α [3]: 1946.52 | CCL4/MIP-1β [3]: 6778.88 | CCL11/Eotaxin [3]: 4.69 | CCL19/MIP-3β [3]: 3.33 | CCL20/MIP-3α [3]: 6.39 | CD40 Ligand [3]: 608.52 | CXCL1/GROα [3]: 9.62 | CXCL2/GROβ [3]: 35.12 | CXCL8/IL-8 [3]: 0 | CXCL10/IP-10 [3]: 40.51 | Flt-3 Ligand [3]: 43.9 | Fractalkine [3]: 194.12 | GM-CSF [3]: 3130.41 | Granzyme B [3]: 1085.42 | IFN-α [3]: 4.79 | IFN-γ [3]: 479.21 | IL-1rα [3]: 0 | IL-1α [3]: 6.12 | IL-1β [3]: 7.45 | IL-2 [3]: 555.39 | IL-3 [3]: 138.37 | IL-4 [3]: 73.09 | IL-5 [3]: 13.91 | IL-6 [3]: 139.59 | IL-7 [3]: 1.11 | IL-10 [3]: 887.25 | IL-12p70 [3]: 22.92 | IL-13 [3]: 233.15 | IL-15 [3]: 1.05 | IL-17A [3]: 0.99 | IL-17E/IL-25 [3]: 3.22 | IL-33 [3]: 3.72 | RANTES [3]: 1598.25 | TNF-α [3]: 5169.38 | cytotoxic activity against autologous glioblastoma cells (in words) [4]: comparable | recognition by CD4+ TILs pre-stimulated with the bacteria/microbiota peptide pool, by proliferation and/or GM-CSF secretion (in words) [5]: recognized
